The values below come from ChEMBL document CHEMBL5291721, “A preclinical secondary pharmacology resource illuminates target-adverse drug reaction associations of marketed drugs” (Nat Commun, 2023).

What is called AC50 is the concentration giving half of the maximal activity seen.

Assay [1] concerns the target Beta-1 adrenergic receptor (Homo sapiens, UniProt P08588). The assay is classed as functional.
Assay [2] addresses T1, Type-1 angiotensin II receptor (Homo sapiens, UniProt P30556).
T1 sequence (P30556 whole entry): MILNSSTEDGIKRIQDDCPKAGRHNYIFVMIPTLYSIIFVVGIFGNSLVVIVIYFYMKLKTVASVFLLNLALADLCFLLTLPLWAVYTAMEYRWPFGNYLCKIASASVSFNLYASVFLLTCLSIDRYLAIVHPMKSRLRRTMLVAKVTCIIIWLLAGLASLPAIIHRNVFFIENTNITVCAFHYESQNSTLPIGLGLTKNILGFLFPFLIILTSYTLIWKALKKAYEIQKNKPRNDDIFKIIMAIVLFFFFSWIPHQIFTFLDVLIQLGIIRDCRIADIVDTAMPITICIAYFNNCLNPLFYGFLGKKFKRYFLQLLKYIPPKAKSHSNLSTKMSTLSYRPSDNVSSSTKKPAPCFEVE

Assay [3] addresses T2, B2 bradykinin receptor (Homo sapiens, UniProt P30411).
T2 sequence (P30411 whole entry): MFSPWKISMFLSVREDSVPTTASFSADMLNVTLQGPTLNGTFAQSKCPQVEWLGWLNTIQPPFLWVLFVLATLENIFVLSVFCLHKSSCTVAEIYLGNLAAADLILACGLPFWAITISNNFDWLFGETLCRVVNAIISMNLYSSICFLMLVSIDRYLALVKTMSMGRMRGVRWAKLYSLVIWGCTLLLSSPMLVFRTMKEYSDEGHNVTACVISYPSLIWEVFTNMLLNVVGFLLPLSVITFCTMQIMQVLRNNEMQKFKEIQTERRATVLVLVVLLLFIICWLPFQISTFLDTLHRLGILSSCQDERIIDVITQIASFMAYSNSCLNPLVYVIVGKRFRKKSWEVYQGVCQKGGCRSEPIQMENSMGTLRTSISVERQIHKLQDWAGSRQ

Assay [4] addresses T3, Muscarinic acetylcholine receptor M1 (Homo sapiens, UniProt P11229).
T3 sequence (P11229 whole entry): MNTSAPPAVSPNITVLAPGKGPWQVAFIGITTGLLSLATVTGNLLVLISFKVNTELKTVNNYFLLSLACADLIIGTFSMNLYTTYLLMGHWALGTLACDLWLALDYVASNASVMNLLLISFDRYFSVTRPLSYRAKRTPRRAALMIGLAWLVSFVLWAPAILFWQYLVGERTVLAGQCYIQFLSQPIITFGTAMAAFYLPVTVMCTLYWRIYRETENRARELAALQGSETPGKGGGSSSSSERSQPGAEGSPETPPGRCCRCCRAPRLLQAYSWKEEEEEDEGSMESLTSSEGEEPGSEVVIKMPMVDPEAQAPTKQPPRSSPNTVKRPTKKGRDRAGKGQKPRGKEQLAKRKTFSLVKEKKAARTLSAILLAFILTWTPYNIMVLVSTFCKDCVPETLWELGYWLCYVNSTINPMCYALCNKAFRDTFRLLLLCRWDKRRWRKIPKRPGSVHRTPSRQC
It is filed as functional.

For assay [5], the target named is T4, Muscarinic acetylcholine receptor M2 (Homo sapiens, UniProt P08172).
T4 sequence (P08172 whole entry): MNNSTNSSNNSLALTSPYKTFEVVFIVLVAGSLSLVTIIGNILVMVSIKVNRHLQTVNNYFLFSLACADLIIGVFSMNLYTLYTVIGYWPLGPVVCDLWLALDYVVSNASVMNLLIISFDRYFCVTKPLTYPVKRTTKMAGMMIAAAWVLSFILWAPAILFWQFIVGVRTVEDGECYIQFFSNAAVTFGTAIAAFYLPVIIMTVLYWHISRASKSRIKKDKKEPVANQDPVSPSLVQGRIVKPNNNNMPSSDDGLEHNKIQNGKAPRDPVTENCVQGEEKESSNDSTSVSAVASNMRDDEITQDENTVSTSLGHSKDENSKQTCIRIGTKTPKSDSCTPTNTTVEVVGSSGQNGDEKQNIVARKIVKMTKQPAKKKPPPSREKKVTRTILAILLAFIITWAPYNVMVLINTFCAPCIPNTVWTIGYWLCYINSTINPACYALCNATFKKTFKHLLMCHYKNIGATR
It is filed as functional, cell-based.

Assay [6] concerns the target Neuronal acetylcholine receptor subunit alpha-4 (Homo sapiens, UniProt P43681).
The target of assay [7] is Gamma-aminobutyric acid receptor subunit alpha-1 (Rattus norvegicus, UniProt P62813). The assay is classed as functional.
Sequence of Gamma-aminobutyric acid receptor subunit alpha-1 (P62813 whole entry): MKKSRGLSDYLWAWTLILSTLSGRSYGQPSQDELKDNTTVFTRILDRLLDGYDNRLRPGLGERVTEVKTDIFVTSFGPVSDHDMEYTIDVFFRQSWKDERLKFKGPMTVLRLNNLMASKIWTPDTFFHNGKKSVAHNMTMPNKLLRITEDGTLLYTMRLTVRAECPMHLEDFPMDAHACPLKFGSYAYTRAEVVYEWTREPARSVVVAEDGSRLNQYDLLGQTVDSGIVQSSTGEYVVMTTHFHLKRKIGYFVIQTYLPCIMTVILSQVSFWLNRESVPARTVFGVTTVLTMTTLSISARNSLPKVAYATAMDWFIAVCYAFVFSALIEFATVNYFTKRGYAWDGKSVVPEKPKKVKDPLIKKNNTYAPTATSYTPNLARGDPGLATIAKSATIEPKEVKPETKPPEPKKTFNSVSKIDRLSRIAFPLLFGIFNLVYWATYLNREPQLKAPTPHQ
The target in assay [8] is T5, 5-hydroxytryptamine receptor 2C (Homo sapiens, UniProt P28335).
T5 sequence (P28335 whole entry): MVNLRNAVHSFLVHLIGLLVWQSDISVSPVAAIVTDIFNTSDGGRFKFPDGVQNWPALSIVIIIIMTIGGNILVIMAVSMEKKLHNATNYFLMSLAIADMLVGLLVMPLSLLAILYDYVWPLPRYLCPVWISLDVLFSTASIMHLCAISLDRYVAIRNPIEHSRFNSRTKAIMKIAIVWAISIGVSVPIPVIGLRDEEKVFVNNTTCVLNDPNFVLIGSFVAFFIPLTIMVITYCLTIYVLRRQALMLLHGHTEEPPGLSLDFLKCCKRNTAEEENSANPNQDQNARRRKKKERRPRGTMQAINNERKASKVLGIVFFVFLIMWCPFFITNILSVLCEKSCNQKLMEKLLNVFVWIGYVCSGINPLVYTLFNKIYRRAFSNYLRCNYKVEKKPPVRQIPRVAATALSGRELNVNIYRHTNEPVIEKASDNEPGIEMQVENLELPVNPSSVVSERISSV

The target of assay [9] is Voltage-gated inwardly rectifying potassium channel KCNH2 (Homo sapiens, UniProt Q12809). The assay is classed as functional. The settings on record: read-out: AC50.
Sequence of Voltage-gated inwardly rectifying potassium channel KCNH2 (Q12809 whole entry): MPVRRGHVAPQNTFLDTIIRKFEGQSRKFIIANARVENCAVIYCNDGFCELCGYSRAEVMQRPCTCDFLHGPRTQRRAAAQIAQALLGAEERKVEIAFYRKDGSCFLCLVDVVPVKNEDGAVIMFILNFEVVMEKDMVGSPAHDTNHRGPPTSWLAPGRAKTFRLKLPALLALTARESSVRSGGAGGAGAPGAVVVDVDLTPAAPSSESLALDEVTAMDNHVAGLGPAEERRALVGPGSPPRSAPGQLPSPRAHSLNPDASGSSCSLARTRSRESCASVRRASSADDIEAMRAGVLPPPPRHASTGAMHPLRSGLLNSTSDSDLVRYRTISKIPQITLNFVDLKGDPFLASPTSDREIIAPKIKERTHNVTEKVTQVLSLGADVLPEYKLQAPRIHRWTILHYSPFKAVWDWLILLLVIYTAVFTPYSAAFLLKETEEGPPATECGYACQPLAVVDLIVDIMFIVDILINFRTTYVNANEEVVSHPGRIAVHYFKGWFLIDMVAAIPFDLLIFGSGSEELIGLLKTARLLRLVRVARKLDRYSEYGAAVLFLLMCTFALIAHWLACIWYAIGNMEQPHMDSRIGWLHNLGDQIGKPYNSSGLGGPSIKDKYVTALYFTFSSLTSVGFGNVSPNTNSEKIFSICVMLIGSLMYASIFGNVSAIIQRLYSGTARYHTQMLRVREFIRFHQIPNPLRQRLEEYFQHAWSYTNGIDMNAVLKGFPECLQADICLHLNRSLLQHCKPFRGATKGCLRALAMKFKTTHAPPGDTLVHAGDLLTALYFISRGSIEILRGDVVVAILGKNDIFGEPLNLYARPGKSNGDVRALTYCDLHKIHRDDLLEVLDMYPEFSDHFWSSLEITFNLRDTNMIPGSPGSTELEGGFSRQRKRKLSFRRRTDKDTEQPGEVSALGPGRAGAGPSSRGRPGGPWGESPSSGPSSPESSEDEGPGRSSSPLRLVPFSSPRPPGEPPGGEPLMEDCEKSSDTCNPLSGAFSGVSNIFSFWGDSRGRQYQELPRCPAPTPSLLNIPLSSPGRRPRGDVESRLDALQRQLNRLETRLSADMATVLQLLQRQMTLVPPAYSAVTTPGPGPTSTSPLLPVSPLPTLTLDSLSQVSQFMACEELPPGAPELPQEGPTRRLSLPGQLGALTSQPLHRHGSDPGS
Assay [10] has as its target Kappa-type opioid receptor (Homo sapiens, UniProt P41145).
The target of assay [11] is T6, Equilibrative nucleoside transporter 1 (Homo sapiens, UniProt Q99808).
T6 sequence (Q99808 whole entry): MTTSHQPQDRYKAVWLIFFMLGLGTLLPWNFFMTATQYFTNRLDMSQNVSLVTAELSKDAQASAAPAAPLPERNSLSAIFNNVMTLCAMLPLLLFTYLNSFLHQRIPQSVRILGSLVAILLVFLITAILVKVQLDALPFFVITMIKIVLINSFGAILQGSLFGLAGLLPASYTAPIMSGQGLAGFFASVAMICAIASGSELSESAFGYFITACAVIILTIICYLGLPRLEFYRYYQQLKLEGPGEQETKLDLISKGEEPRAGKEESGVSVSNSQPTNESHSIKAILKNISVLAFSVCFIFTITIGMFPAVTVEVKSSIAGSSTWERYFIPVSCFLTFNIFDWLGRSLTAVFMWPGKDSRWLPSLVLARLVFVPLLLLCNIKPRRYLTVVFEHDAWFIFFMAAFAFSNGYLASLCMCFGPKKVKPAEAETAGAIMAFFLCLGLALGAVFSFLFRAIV
Also: assay procedure not described here.

Sequence of Kappa-type opioid receptor (P41145 whole entry): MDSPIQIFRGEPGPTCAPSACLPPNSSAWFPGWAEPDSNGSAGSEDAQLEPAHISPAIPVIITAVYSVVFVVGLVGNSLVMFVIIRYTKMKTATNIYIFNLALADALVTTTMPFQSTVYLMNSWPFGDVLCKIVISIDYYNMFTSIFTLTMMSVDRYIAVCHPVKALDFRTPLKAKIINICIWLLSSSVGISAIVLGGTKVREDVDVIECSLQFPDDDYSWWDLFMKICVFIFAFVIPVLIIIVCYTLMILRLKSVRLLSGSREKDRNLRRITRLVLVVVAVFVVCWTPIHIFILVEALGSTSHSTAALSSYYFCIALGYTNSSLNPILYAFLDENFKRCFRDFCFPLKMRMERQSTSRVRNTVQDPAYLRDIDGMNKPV
Sequence of Beta-1 adrenergic receptor (P08588 whole entry): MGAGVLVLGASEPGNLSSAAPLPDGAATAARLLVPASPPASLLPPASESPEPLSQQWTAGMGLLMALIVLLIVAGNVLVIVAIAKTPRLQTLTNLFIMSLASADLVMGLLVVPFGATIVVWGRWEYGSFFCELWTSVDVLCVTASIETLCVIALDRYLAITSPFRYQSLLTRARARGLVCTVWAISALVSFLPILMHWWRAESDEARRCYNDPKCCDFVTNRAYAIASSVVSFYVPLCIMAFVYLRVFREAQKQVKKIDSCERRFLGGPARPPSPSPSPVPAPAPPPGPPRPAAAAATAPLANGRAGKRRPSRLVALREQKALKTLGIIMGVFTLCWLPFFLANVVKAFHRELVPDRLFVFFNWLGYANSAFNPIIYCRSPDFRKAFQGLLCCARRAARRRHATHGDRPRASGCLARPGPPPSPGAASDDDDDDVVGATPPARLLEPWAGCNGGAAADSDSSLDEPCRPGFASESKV
Sequence of Neuronal acetylcholine receptor subunit alpha-4 (P43681 whole entry): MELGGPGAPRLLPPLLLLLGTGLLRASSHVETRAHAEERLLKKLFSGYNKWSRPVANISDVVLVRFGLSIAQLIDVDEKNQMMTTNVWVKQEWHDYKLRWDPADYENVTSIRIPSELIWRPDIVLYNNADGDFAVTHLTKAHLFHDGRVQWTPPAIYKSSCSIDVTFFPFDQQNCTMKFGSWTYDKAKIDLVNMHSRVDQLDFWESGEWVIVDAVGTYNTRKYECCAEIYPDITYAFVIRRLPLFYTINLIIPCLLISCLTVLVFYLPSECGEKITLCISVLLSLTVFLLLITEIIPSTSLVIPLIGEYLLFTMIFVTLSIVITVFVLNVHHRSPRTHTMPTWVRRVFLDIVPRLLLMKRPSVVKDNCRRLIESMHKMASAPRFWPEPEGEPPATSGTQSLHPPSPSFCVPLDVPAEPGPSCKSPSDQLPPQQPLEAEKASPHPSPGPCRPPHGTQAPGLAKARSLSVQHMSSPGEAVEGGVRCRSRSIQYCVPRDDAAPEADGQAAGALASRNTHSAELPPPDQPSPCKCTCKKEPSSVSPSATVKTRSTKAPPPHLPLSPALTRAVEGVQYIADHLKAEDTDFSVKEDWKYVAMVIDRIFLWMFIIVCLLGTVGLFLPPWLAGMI

`C=CC1=C(C(=O)O)N2C(=O)[C@@H](NC(=O)/C(=N\O)c3csc(N)n3)[C@H]2SC1`: the AC50 is more than 30 µM in assay [1]; more than 30 µM in assay [2]; more than 30 µM in assay [3]; more than 10 µM in assay [4]; more than 10 µM in [5]; more than 10 µM in assay [6]. Moreover, the AC50 in assay [7] is more than 10 µM; in assay [8], more than 30 µM; in assay [9], more than 30 µM; in assay [10] it was more than 10 µM; in assay [11] it was more than 30 µM.

For `CN(C)CCc1c[nH]c2ccc(CS(=O)(=O)N3CCCC3)cc12` [ALMOTRIPTAN], the half-maximal activity concentration (AC50) in assay [1], in assay [2], in assay [3], in assay [4], in [5] and in assay [6] was more than 30 µM throughout. Besides, the AC50 is more than 30 µM in assay [7]; more than 30 µM in assay [8]; 15 µM in assay [9]; more than 30 µM in assay [10]; more than 30 µM in assay [11].

In the case of `CC[N+](CC)(CCNC(=O)C(=O)NCC[N+](CC)(CC)Cc1ccccc1Cl)Cc1ccccc1Cl` [AMBENONIUM], the AC50 was more than 30 µM in [1]; more than 30 µM in assay [2]; more than 30 µM in [3]; 1.6 µM in assay [4]; more than 30 µM in assay [5]; more than 30 µM in assay [6]. The AC50 in assay [7] is more than 30 µM; in assay [8], more than 30 µM; in assay [9] it was 7.8 µM; in assay [10] it was 0.7 µM.

With `CC(C)C[C@H](NC(=O)[C@H](Cc1ccccc1)NC(=O)c1cnccn1)B(O)O` [BORTEZOMIB], the AC50 in assay [1], in assay [2], in [3], in assay [4], in assay [5] and in [6] was more than 30 µM throughout. Also, the AC50 in assay [7], in assay [8], in [9], in assay [10] and in assay [11] was more than 30 µM each time.

As to `CN(C)CCOC(c1ccc(Cl)cc1)c1ccccn1` (stereo unspecified) [CARBINOXAMINE], the AC50 in assay [2], in assay [3], in [4], in [5], in assay [6] and in assay [7] was more than 30 µM each time. The AC50 in assay [8] was more than 30 µM; in assay [9], 1.3 µM; in assay [10], more than 30 µM; in assay [11] it was more than 30 µM.

On to `CCN(CC)CCn1c(=O)c(Cc2ccc(OC)cc2)nc2ccccc21` [CAROVERINE], for which the AC50 in assay [1], in assay [2], in assay [3], in assay [4], in assay [5] and in assay [6] was more than 30 µM throughout. In addition, the AC50 in assay [7] was 19 µM; in assay [8], 27 µM; in assay [9], 0.16 µM; in assay [10], 5.34 µM; in [11], more than 30 µM.

Turning to `CC(C)/N=c1\cc2n(-c3ccc(Cl)cc3)c3ccccc3nc-2cc1Nc1ccc(Cl)cc1` [CLOFAZIMINE], the AC50 is more than 30 µM in assay [1]; more than 30 µM in assay [2]; more than 30 µM in [3]; 13 µM in [4]; more than 30 µM in [5]; more than 30 µM in assay [6]. Moreover, the AC50 is 20 µM in assay [7], more than 30 µM in [8], 0.958 µM in assay [9] and 14 µM in assay [10].

For `C[C@]12CCC(=O)C=C1CC[C@H]1[C@@H]3CC[C@](O)(C(=O)CO)[C@@]3(C)C[C@H](O)[C@@]12F` [FLUDROCORTISONE], the AC50 in assay [1] was more than 10 µM; in assay [2], more than 30 µM; in [3], more than 30 µM; in assay [4] it was more than 10 µM; in assay [5], more than 30 µM; in assay [6], more than 10 µM. For the same compound, the concentration at half-maximal activity (AC50) in assay [7] is more than 10 µM; in assay [8], more than 30 µM; in assay [9] it was more than 30 µM; in [10], more than 10 µM; in assay [11] it was more than 30 µM.

Take `CCOC(=O)Nc1ccc(NCc2ccc(F)cc2)nc1N` [FLUPIRTINE]: the AC50 in assay [1], in assay [2], in [3], in assay [4], in assay [5] and in [6] was more than 30 µM throughout. The concentration at half-maximal activity (AC50) was more than 30 µM in assay [7]; more than 10 µM in assay [8]; 27 µM in assay [9]; 18 µM in assay [10]; more than 30 µM in assay [11].

`OCCOCCN1CCN(C(c2ccccc2)c2ccc(Cl)cc2)CC1` (stereo unspecified) [HYDROXYZINE]: the AC50 in [1] was more than 10 µM; in [2], more than 30 µM; in assay [3] it was more than 30 µM; in [4], more than 10 µM; in assay [5] it was more than 10 µM; in assay [6] it was more than 10 µM. The AC50 in assay [7] is more than 10 µM; in assay [8] it was more than 30 µM; in assay [10], 8.65 µM; in [11] it was more than 30 µM.

For `CC(=O)NC[C@H]1CN(c2ccc(N3CCOCC3)c(F)c2)C(=O)O1` [LINEZOLID], the concentration at half-maximal activity (AC50) in assay [1], in assay [2], in assay [3], in [4], in assay [6] and in [7] was more than 30 µM in each case. For the same compound, the AC50 in [8], in [9], in assay [10] and in assay [11] was more than 30 µM each time.
